Data taken from ChEMBL document CHEMBL3867445, “Halogenated Sesquiterpenoids from the Red Alga Laurencia tristicha Collected in Taiwan” (J Nat Prod, 2016).
pIC50: −log10 of the molar value.

Legend:
[1] = Cytotoxicity against human DLD1 cells by Alamar Blue assay; type: functional, cell-based; details: DLD-1
Klebsiella aerogenes = assay: Antibacterial activity against Enterobacter aerogenes ATCC 13048 assessed as zone of inhibition at 100 ug/disk measured after 24 hrs by agar disk-diffusion method; type: functional; details: ATCC 13048, 24 h, read-out: IZ
[2] = Antiinflammatory activity in human neutrophils assessed as inhibition of fMLP/CB-induced superoxide anion generation by measuring superoxide dismutase-inhibitable reduction of ferricytochrome c at 20 uM preincubated for 5 mins followed by fMLP/CB-induction measured after 10 mins; type: functional; details: Neutrophil
[3] = Cytotoxicity against human A549 cells by Alamar Blue assay
[4] = Antiinflammatory activity in human neutrophils assessed as inhibition of fMLP/CB-induced elastase release at 10 uM using MeO-Suc-Ala-Ala-Pro-Val-p-nitroanilide as elastase substrate preincubated for 5 mins followed by fMLP/CB-induction; type: functional; details: Neutrophil
[5] = Antiinflammatory activity in human neutrophils assessed as inhibition of fMLP/CB-induced elastase release at 20 uM using MeO-Suc-Ala-Ala-Pro-Val-p-nitroanilide as elastase substrate preincubated for 5 mins followed by fMLP/CB-induction; type: functional; details: Neutrophil
[6] = Cytotoxicity against human LNCAP cells by Alamar Blue assay; type: functional, cell-based
[7] = Antiinflammatory activity in human neutrophils assessed as inhibition of fMLP/CB-induced superoxide anion generation by measuring superoxide dismutase-inhibitable reduction of ferricytochrome c at 10 uM preincubated for 5 mins followed by fMLP/CB-induction measured after 10 mins; type: functional; details: Neutrophil
Serratia marcescens = assay: Antibacterial activity against Serratia marcescens ATCC 25419 assessed as zone of inhibition at 100 ug/disk measured after 24 hrs by agar disk-diffusion method; type: functional; details: ATCC 25419, 24 h, read-out: IZ
Yersinia enterocolitica = assay: Antibacterial activity against Yersinia enterocolitica ATCC 23715 assessed as zone of inhibition at 100 ug/disk measured after 24 hrs by agar disk-diffusion method; type: functional; details: ATCC 23715, 24 h, read-out: IZ

Compound | pIC50 [1] | zone of inhibition at 100 µg/disc (Klebsiella aerogenes) | inhibition at 20 µM [2] | pIC50 [3] | inhibition at 10 µM [4] | inhibition at 20 µM [5] | pIC50 [6] | inhibition at 10 µM [7] | zone of inhibition at 100 µg/disc (Serratia marcescens) | zone of inhibition at 100 µg/disc (Yersinia enterocolitica)
C=C1C[C@@H](O)[C@@H](Br)C(C)(C)[C@]12CC[C@](C)(Br)[C@@H](Cl)C2 | ≤ 5.00 | 2 mm | 48% | ≤ 5.00 | 44% | 60% | ≤ 5.00 | 25% | 2 mm | 2 mm
CO[C@@]1(C)CC[C@]2(C[C@H]1Br)C(C)=C[C@H](O)CC2(C)C | ≤ 5.00 | – | 10% | ≤ 5.00 | 5% | 24% | ≤ 5.00 | 12% | – | –
CC1(C)[C@H](Br)[C@H](O)C[C@@]2(CO2)[C@@]12CCC(=O)[C@@H]1O[C@@H]12 | ≤ 5.00 | – | 8% | ≤ 5.00 | 2% | 18% | ≤ 5.00 | 9% | – | –
C=C1C[C@@H](O)[C@@H](Br)C(C)(C)[C@@]12C=C[C@](O)(C(Br)Br)CC2 | ≤ 5.00 | – | 32% | ≤ 5.00 | 9% | 33% | ≤ 5.00 | 19% | 2 mm | 4 mm
CC1=CC(=O)CC(C)(C)[C@@]12C=C/C(=C\Br)CC2 | ≤ 5.00 | – | 12% | ≤ 5.00 | 3% | 14% | ≤ 5.00 | 6% | 8 mm | –
CC1=C[C@H](O)[C@@H](Br)C(C)(C)[C@@]12C=C[C@](C)(O)CC2 | ≤ 5.00 | – | 12% | ≤ 5.00 | 1% | 12% | ≤ 5.00 | 13% | – | –
COc1cccc2c1C(=O)c1c(O)c3c(c(O)c1C2=O)C[C@@](O)(C(=O)CO)C[C@@H]3O[C@H]1C[C@H](N)[C@H](O)[C@H](C)O1 [DOXORUBICIN] | 5.59 | – | – | – | – | – | 5.85 | – | – | –
CC1=CC(=O)CC(C)(C)[C@@]12C=CC(=O)CC2 | ≤ 5.00 | – | 16% | ≤ 5.00 | 18% | 32% | ≤ 5.00 | 4% | – | –
CC1(C)S[C@@H]2[C@H](NC(=O)[C@H](N)c3ccccc3)C(=O)N2[C@H]1C(=O)O [AMPICILLIN] | – | 11 mm | – | – | – | – | – | – | 5 mm | 8 mm
CC[C@H](Nc1ncnc2[nH]cnc12)c1nc2cccc(F)c2c(=O)n1-c1ccccc1 [IDELALISIB] | – | – | – | – | 100% | – | – | 103% | – | –
Cc1ccc([C@]2(C)C[C@H](O)[C@@H](Br)C2(C)C)cc1 | ≤ 5.00 | – | 26% | ≤ 5.00 | 7% | 28% | ≤ 5.00 | 17% | – | –
C=C1C[C@@H](O)[C@@H](Br)C(C)(C)[C@@]12C=C[C@@](O)(C(Br)Br)CC2 [MAILIOHYDRIN] | ≤ 5.00 | 1 mm | 16% | ≤ 5.00 | 16% | 22% | ≤ 5.00 | 13% | 2 mm | 2 mm
C=C1C[C@@H](O)[C@@H](Br)C(C)(C)[C@@]12C=C/C(=C/Br)CC2 | ≤ 5.00 | – | 10% | ≤ 5.00 | 34% | 69% | ≤ 5.00 | 18% | – | –
C=C1CC[C@]2(C[C@@H]1O)C(=C)C[C@H](O)[C@@H](Br)C2(C)C | ≤ 5.00 | – | 14% | ≤ 5.00 | 5% | 24% | ≤ 5.00 | 10% | – | –
C=C1C[C@@H](O)[C@@H](Br)C(C)(C)[C@@]12C=C[C@](O)(CO)CC2 | ≤ 5.00 | – | 14% | ≤ 5.00 | 9% | 29% | ≤ 5.00 | 7% | – | –
C=C1C[C@@H](O)[C@@H](Br)C(C)(C)[C@@]12C=CC(=O)CC2 | ≤ 5.00 | 3 mm | 13% | ≤ 5.00 | 9% | 14% | ≤ 5.00 | 7% | – | –
C=C1C[C@@H](O)[C@@H](Br)C(C)(C)[C@@]12C=C/C(=C\Br)CC2 | ≤ 5.00 | – | 10% | ≤ 5.00 | 8% | 12% | ≤ 5.00 | 24% | 4 mm | 3 mm
C=C1C[C@H](O)[C@@H](Br)C(C)(C)[C@@]12C=C[C@](C)(O)CC2 [ISORIGIDOL] | ≤ 5.00 | – | 23% | ≤ 5.00 | 9% | 12% | ≤ 5.00 | 11% | – | –
CC1=C[C@H](O)CC(C)(C)[C@]12CC[C@](C)(Br)[C@H](Cl)C2 | ≤ 5.00 | – | 14% | ≤ 5.00 | 12% | 19% | ≤ 5.00 | 12% | – | –
C=C1C[C@@H](O)[C@@H](Br)C(C)(C)[C@]12CCC(=O)[C@H]1O[C@H]12 | ≤ 5.00 | – | 6% | ≤ 5.00 | 3% | 14% | ≤ 5.00 | 6% | – | –
CC1=CC(=O)CC(C)(C)[C@@]12C=C/C(=C/Br)CC2 | ≤ 5.00 | – | 10% | ≤ 5.00 | 5% | 30% | ≤ 5.00 | 7% | – | –
